Laboratory results published in the NIST ThermoML archive (doi:10.1021/je020130i).
± gives the expanded uncertainty stated by the source.

settings: 363.15 K; Liquid

vapor or sublimation pressure	Structure (SMILES)
2.1 ± 0.09 kPa [middle of 4 runs]	CNC=O [N-methylformamide]
131.21 ± 1.7 kPa	CC#N [acetonitrile]
137.28 ± 1.8 kPa	c1ccccc1 [benzene]
188.05 ± 2.4 kPa	CCCCCC [hexane]

Structure (SMILES)	vapor or sublimation pressure
Clc1ccccc1 [chlorobenzene]	28.33 ± 0.42 kPa
